Key:
[1] = test system: colitis in C.B-17 SCID mice; assay: CD4+ CD45Rb high T cell-reconstituted SCID colitis model mice; assay type: in vivo, mouse
Procedure: Treatment of Crohn's disease in CD4^+ CD45Rb^high T cell-reconstituted SCID colitis model mice: Spleen cells were prepared from normal female BALB/c mice. For cell purification, the following anti-mouse antibodies were used to label non-CD4^+ T cells: B220 (RA3-6B2), CD11b (M1/70), and CD8α (53-6.72). All antibodies were obtained from BioSource (Camarillo, Calif.). M450 anti-rat IgG-coated magnetic beads (Dynal, Oslo, Norway) were used to bind the antibodies and negative selection was accomplished using an MPC-1 magnetic concentrator. The enriched CD4^+ cells were then labeled for cell sorting with FITC-conjugated CD45RB (16A, Pharmingen, San Diego, Calif.) and PE-conjugated CD4 (CT-CD4, Caltag, Burlingame, Calif.). CD4^+ CD45RB^high cells were operationally defined as the upper 40% of CD45Rb-staining CD4^+ cells and sorted under sterile conditions by flow cytometry. Harvested cells were resuspended at 4×10^6/mL in PBS and injected 100 μL intraperitoneally into female C.B-17 SCID mice. Pyrimidine compounds of this invention (e.g., Compound 12) and/or vehicle was orally administered once a day, 5 days per week, starting the day following the transfer. The transplanted SCID mice were weighed weekly and their clinical condition was monitored.
Colon tissue samples were fixed in 10% buffered formalin and embedded in paraffin. Sections (4 μm) collected from ascending, transverse, and descending colon were cut and stained with hematoxylin and eosin. The severity of colitis was determined based on histological examination of the distal colon sections, whereby the extent of colonic inflammation was graded on a scale of 0-3 in each of four criteria: crypt elongation, cell infiltration, depletion of goblet cells, and the number of crypt abscesses.
LP lymphocytes were isolated from freshly obtained colonic specimens. After removal of payer's patches, the colon was washed in Ca/Mg-free HBSS, cut into 0.5 cm pieces and incubated twice in HBSS containing EDTA (0.75 mM), DTT (1 mM), and antibiotics (amphotericin 2.5 μg/mL, gentamicin 50 μg/mL from Sigma) at 37° C. for 15 min. Next, the tissue was digested further in RPMI containing 0.5 mg/mL collagenase D, 0.01 mg/mL DNase I (Boehringer Manheim), and antibiotics at 37° C. LP cells were then layered on a 40-100% Percoll gradient (Pharmacia, Uppsala, Sweden), and lymphocyte-enriched populations were isolated from the cells at the 40-100% interface.
To measure cytokine production, 48-well plates were coated with 10 μg/mL murine anti-CD3ε antibody (145-2C11) in carbonate buffer (PH 9.6) overnight at 4° C. […] Murine IFNγ was measured using an ELISA kit from Endogen (Cambridge, Mass.), according to the manufacturer's instructions.

[2] = test system: IL-12 production in human PBMC or THP-1 cells; assay: In vitro inhibition of IL-12 production in stimulated human PBMC or THP-1 cells (ELISA); assay type: cell-based; conditions: representative in vitro IC50 data
Excerpt: The biological activities of a heterocyclic compound can be evaluated by a number of cell-based assays. One of such assays can be conducted using cells from human peripheral blood mononuclear cells (PBMC) or human monocytic cell line (THP-1). The cells are stimulated with a combination of human interferon-γ (IFNγ) and lipopolysaccharide or a combination of IFNγ and Staphylococcus aureus Cowan I in the presence of a test compound. The level of inhibition of IL-12 production can be measured by determining the amount of p70 by using a sandwich ELISA assay with anti-human IL-12 antibodies. IC50 of the test compound can then be determined. Specifically, PBMC or THP-1 cells are incubated with the test compound. Cell viability was assessed using the bioreduction of MTS [3-(4,5-dimethylthiazol-2-yl)-5-(3-carboxymethoxyphenyl)-2-(4-sulfophenyl)-2H-tetrazolium] (Promega, Madison, Wis.).
Reagents. Staphylococcus aureus Cowan I (SAC) was obtained from Calbiochem (La Jolla, Calif.), and lipopolysaccharide (LPS, Serratia marscencens) was obtained from Sigma (St. Louis, Mo.). Human and mouse recombinant IFNγ were purchased from Boehringer Mannheim (Mannheim, Germany) and Pharmingen (San Diego, Calif.), respectively.
Human In Vitro Assay. Human PBMC were isolated by centrifugation using Ficoll-Paque (Pharmacia Biotech, Uppsala, Sweden) and prepared in RPMI medium supplemented with 10% fetal calf serum (FCS), 100 U/mL penicillin, and 100 μg/mL streptomycin. PBMC were plated in wells of a 96-well plate at a concentration of 5×10^5 cells/well, and primed by adding IFNγ (30 U/mL) for 22 h and stimulated by adding LPS (1 μg/mL), or by adding IFNγ (100 U/mL) and then stimulated by adding SAC (0.01%). A test pyrimidine compound was dissolved in DMSO, and added to wells of the 96-well plate. The final DMSO concentration was adjusted to 0.25% in all cultures, including the compound-free control. Human THP-1 cells were plated in wells, primed by adding IFNγ (100 U/mL) for 22 h and stimulated by adding SAC (0.025%) in the presence of different concentrations of the pyrimidine compound. Cell-free supernatants were taken 18 h later for measurement of cytokines. Cell viability was assessed using the bioreduction of MTS. Cell survival was estimated by determining the ratio of the absorbance in compound-treated groups versus compound-free control.
The supernatant was assayed for the amount of IL-12p40, IL-12p70, or IL-10 by using a sandwich ELISA with anti-human antibodies, i.e., a Human IL-12 p40 ELISA kit from R&D Systems (Berkeley, Calif.), and a Human IL-12 p70 or IL-10 ELISA kit from Endogen (Cambridge, Mass.). Assays were based on the manufacturer's instructions.
The biological activities of pyrimidine compounds were tested on human PBMC or THP-1 cells. Unexpectedly, some of the test compounds have IC50 values as low as <1 nM.

## Cc1cccc(/C=N/Nc2cc(N3CCOCC3)nc(CCOC(=O)Nc3cccc(C(F)(F)F)c3)n2)c1 [Compound 12, (3-Trifluoromethyl-phenyl)-carbamic acid 2-{4-[N′-(3-methyl-benzylidene)-hydrazino]-6-morpholin-4-yl-pyrimidin-2-yl}-ethyl ester]
[1]; LP cells from treated mice, ex vivo, 48 h culture
  IFNγ production by LP cells in response to anti-CD3 and anti-CD28 antibody: greatly diminished the production
[1]; oral, once a day, 5 days per week, compared to vehicle control
  colonic inflammation (histological analysis): reduced colonic inflammation
[1]; oral, consistent with histological score
  colon-to-body weight ratio: attenuation
[1]; oral, dose of 10 mg/kg
  suppressive effect on colonic inflammation at 10 mg/kg: substantial reduction
[2]
  IC50: < 25 nM

Source: patent publication US7872005B2, “2-substituted heteroaryl compounds” (Synta Pharmaceuticals Corporation, priority 2004, dated 2011)
